Reference: patent publication US7459281B2, “Docetaxel immunoassay” (Saladax Biomedical Inc., priority 2005, dated 2008)

Experiments:
[1] = system: docetaxel antibody (antiserum produced in Example 11 with C7 substituted docetaxel acid derivative immunogen); test: Indirect competitive microtiter plate ELISA, IC50 and cross-reactivity, polyclonal antibodies to C7 substituted docetaxel acid derivative conjugate; type: binding, mouse (BALB/c); conditions: antibody of Example 11, immunogen of Example 9a
Method: Ten Female BALB/c mice were immunized i.p. with 100 μg/mouse of docetaxel-immunogen: either docetaxel-BTG as prepared in Example 9a or docetaxel-KLH immunogen as prepared in Example 9b emulsified in Complete Freund's Adjuvant. After the initial injection mice were boosted once after four weeks with 100 μg/mouse of the same immunogen emulsified in Incomplete Freund's Adjuvant. Ten days after the boosts test bleeds from each mouse were obtained by orbital bleed. The anti-serum from the last test bleeds containing docetaxel antibodies from each of the mice were evaluated by the procedures in Examples 14a and 16 to determine their reactivity to docetaxel and their cross reactivity to 10-O-Deacytlbaccatin III and, paclitaxel [Taxol].
Antibodies were screened by Enzyme-Linked Immunosorbent Assay (ELISA) method. This method for screening docetaxel antibodies (produced in Examples 10 and 11) was performed with the microtiter plates that were sensitized with docetaxel-BSA as described in Examples 12 and 13. The antibody screening assay was performed by diluting the antisera containing docetaxel antibodies to 1:100, 1:1,000, 1:10,000 and 1:100,000 in phosphate buffered saline containing 0.1% BSA and 0.01% thimerosal. To each well of docetaxel-BSA sensitized wells (prepared in Examples 12 and 13) 100 μL of diluted antibody was added and incubated for 10 minutes at room temperature with shaking. During this incubation antibody binds to the docetaxel-conjugate in the well. The wells of the plates were washed three times with 0.02 M TRIS, 0.9% NaCl, 0.5% Tween-80 and 0.001% Thimerosal, pH 7.8 to remove any unbound antibody. […] Following the incubation for color development, 50 μL of stop solution (1.5% sodium fluoride in di H2O) was added to each well to stop the color development and after 10 seconds of shaking the absorbance was determined at 650 nm with a 96-well plate reader. The amount of antibody in a well was proportional to the absorbance measured and was expressed as the dilution (titer) resulting in an absorbance of 1.5. Titers were determined by graphing log antibody dilution of the antibody measured (x-axis) vs. absorbance 650 nm (y-axis) and extrapolating the titer at an absorbance of 1.5. The titer determined the concentration (dilution) of antibody used in the indirect competitive Microtiter plate assay described in Examples 15 and 16.
(§1) Docetaxel concentrations were measured by an indirect competitive Enzyme-Linked Immunosorbent Assay (ELISA) method. […]

[2] = system: docetaxel monoclonal antibody (produced in Example 11); test: Indirect competitive microtiter plate ELISA, IC50 and cross-reactivity, monoclonal antibodies to C7 substituted docetaxel acid derivative conjugate; type: binding, mouse (BALB/c); conditions: monoclonal antibody of Example 11, immunogen of Examples 9a & 9b; microtiter plate prepared as in Example 13
Method: For monoclonal antibodies starting […] before the fusion, the mice were injected i.p. with 400 μg (3 days before fusion), 200 μg (2 days before fusion), and 200 μg (1 day before fusion) on three successive days with either docetaxel-BTG or docetaxel-KLH (depending on the original immunogen) in PBS. According to the protocol of Coligan et al. spleen cells were isolated from the selected mice and fused with 2×10^7 cells of the myeloma fusion partner cell line (SP2/o) using 50% polyethylene glycol 1500 [Coligan, J. E. et al., eds., Current Protocols in Immunology, 2.5.1-2.5.8, (1992), Wiley & Sons, NY.] […]
Antibodies were screened by Enzyme-Linked Immunosorbent Assay (ELISA) method. […] Following the incubation for color development, 50 μL of stop solution (1.5% sodium fluoride in di H2O) was added to each well to stop the color development and after 10 seconds of shaking the absorbance was determined at 650 nm on a 96-well plate reader. The amount of antibody in a well was proportional to the absorbance measured. Samples with an absorbance of three times background or greater were designated as positive.
as §1

[3] = microtiter plate prepared as in Example 12
[4] = microtiter plate prepared as in Example 13

## CC(=O)O[C@@]12CO[C@@H]1CC(O)[C@@]1(C)C(=O)[C@H](O)C3=C(C)C(O)C[C@@](O)([C@@H](OC(=O)c4ccccc4)[C@H]21)C3(C)C (stereo partly drawn) [10-O-Deacytlbaccatin III, 10-O-Deacetylbaccatin III]
[1]; [3]
  percent cross-reactivity relative to docetaxel (ratio of IC50 for docetaxel to IC50 for analyte): less than 0.02%
[1]; [4]
  percent cross-reactivity relative to docetaxel (ratio of IC50 for docetaxel to IC50 for analyte): less than 0.01%
[2]
  percent cross-reactivity relative to docetaxel (ratio of IC50 for docetaxel to IC50 for analyte): less than 1.0%

## CC(=O)O[C@H]1C(=O)[C@@]2(C)[C@H]([C@H](OC(=O)c3ccccc3)[C@]3(O)C[C@H](OC(=O)[C@H](O)[C@@H](NC(=O)c4ccccc4)c4ccccc4)C(C)=C1C3(C)C)[C@]1(OC(C)=O)CO[C@@H]1C[C@@H]2O [Paclitaxel, paclitaxel]
[1]; [3]
  percent cross-reactivity relative to docetaxel (ratio of IC50 for docetaxel to IC50 for analyte): less than 2%
[1]; [4]
  percent cross-reactivity relative to docetaxel (ratio of IC50 for docetaxel to IC50 for analyte): less than 1%
[2]
  percent cross-reactivity relative to docetaxel (ratio of IC50 for docetaxel to IC50 for analyte): less than 12%
